Test results from ChEMBL document CHEMBL5108051, “Improving the Antimicrobial Performance of Amphiphilic Cationic Antimicrobial Peptides Using Glutamic Acid Full-Scan and Positive Charge Compensation Strategies” (J Med Chem, 2022).
Calls of active or inactive are those of the source. The rule behind the calls is not given here. Bridge positions count the residues as written; N and C are the ends. Square brackets hold non-standard residues; d marks the D form. Peptide text beside a SMILES is read from it. * marks the point of attachment. X1 = CC[C@H](C)CCCCC(=O)*; Dab = NCC[C@H](N)C(=O)O

Columns and labels:
Escherichia coli [1] = experiment: Disruption of membrane integrity in Escherichia coli ATCC 25922 assessed as increase in nucleic acid leakage by measuring PI-uptake level by microplate reader assay; type: functional, organism-based
Escherichia coli [2] = experiment: Antimicrobial activity against Escherichia coli ATCC 25922 assessed as reduction in survival rate in presence of >= 0.02 microg/ml of chymotrypsin measured after 6 hrs; type: functional, organism-based
[3] = Acute toxicity in BALB/c mouse assessed as ruffled hairs at 10 to 20 mg/kg, ip administered as single dose measured for 7 days; type: organism-based; conditions: in vivo, 168 h, dose 10-20 mg/kg, time 7 day

| SMILES | Activity (Escherichia coli [1]) | Activity (Escherichia coli [2]) | Activity [3] |
| --- | --- | --- | --- |
| CC(C)C[C@H](NC(=O)[C@H](CC(C)C)NC(=O)[C@H](CCC(=O)O)NC(=O)[C@H](CCCCN)NC(=O)[C@H](CC(C)C)NC(=O)[C@H](CC(C)C)NC(=O)[C@H](CCCCN)NC(=O)[C@H](C)NC(=O)[C@@H](NC(=O)[C@H](CCCCN)NC(=O)[C@@H]1CCCN1C(=O)[C@H](CC(C)C)NC(=O)[C@@H](N)Cc1ccccc1)C(C)C)C(N)=O (H-FLPKVAKLLKELL-NH2) | Active | – | – |
| CC[C@H](C)CCCCC(=O)N[C@@H](CCN)C(=O)N[C@H](C(=O)N[C@@H](CCN)C(=O)N[C@H]1CCNC(=O)[C@H]([C@@H](C)O)NC(=O)[C@H](CCN)NC(=O)[C@H](CCN)NC(=O)[C@H](CC(C)C)NC(=O)[C@@H](Cc2ccccc2)NC(=O)[C@H](CCN)NC1=O)[C@@H](C)O (X1-[Dab]T[Dab][Dab][Dab][dF]L[Dab][Dab]T; lactam 4-C) | – | Active | Toxic |
